Measurements reported in patent US20230338543A1, “GAMMA-HYDRO[…] AND PROCESSES FOR MAKING AND USING THEM” (Zevra Therapeutics, Inc., priority 2022, published 2023).

Assay: Pharmacokinetics of GHB in plasma after oral gavage of GHB delivering compounds in rats; relative oral bioavailability vs sodium oxybate
Details: vehicle water; for % AUC0-4 hr, relative oral bioavailability vs sodium oxybate / % Cmax, relative oral bioavailability vs sodium oxybate: mean conjugate PK parameter/mean comparator PK parameter
[1] = dose equivalent to 80 mg/kg NaGHB (extrapolated to 100 mg/kg)
[2] = dose equivalent to 80 mg/kg NaGHB, data extrapolated to 100 mg/kg
[3] = molar equivalent of 100 mg/kg NaGHB

Structure (SMILES)	% AUC0-4 hr, relative oral bioavailability vs sodium oxybate [1]	% Cmax, relative oral bioavailability vs sodium oxybate [1]	AUC0-4 hr of GHB in plasma [2]	Cmax of GHB in plasma [2]	Tmax of GHB in plasma (dose equivalent to 80 mg/kg NaGHB)	AUC0-4 hr of GHB in plasma [3]	Cmax of GHB in plasma [3]	Tmax of GHB in plasma [3]	% AUC0-4 hr, relative oral bioavailability vs sodium oxybate [3]	% Cmax, relative oral bioavailability vs sodium oxybate [3]
CCOC(=O)OCCCC(=O)O [O-(ethoxycarbonyl)-GHB]	54%	51%	19.4 ng·h/mL	15.0 ng/mL	21 min					
O=C1CCCO1 [GBL]						9.04 ng·h/mL	15.4 ng/mL	15 min	27%	70%
